Oligonucleotides are given in HELM: sugar(base)linkage, 5' to 3'; d 2'-deoxyribose, r ribose, m 2'-O-methylribose, p phosphate. ss, as = sense and antisense strand
Molecular target: Mmp7 (rat)
Test: reporter assay of Huesken 2005
Settings: siRNA
Also: test concentration or dose not given here.

Substance	normalised inhibition (eCFP-eYFP dual reporter) [%]
RNA1{r(U)p.r(A)p.r(C)p.r(C)p.r(U)p.r(U)p.r(C)p.r(A)p.r(C)p.r(G)p.r(A)p.r(C)p.r(U)p.r(C)p.r(U)p.r(A)p.r(A)p.r(A)p.r(A)p.d(T)p.d(T)}|RNA2{r(U)p.r(U)p.r(U)p.r(U)p.r(A)p.r(G)p.r(A)p.r(G)p.r(U)p.r(C)p.r(G)p.r(U)p.r(G)p.r(A)p.r(A)p.r(G)p.r(G)p.r(U)p.r(A)p.d(A)p.d(A)}$$$RNA1{StrandType:ss}|RNA2{StrandType:as}$	110
RNA1{r(U)p.r(A)p.r(C)p.r(U)p.r(G)p.r(G)p.r(A)p.r(C)p.r(G)p.r(G)p.r(A)p.r(U)p.r(G)p.r(G)p.r(U)p.r(G)p.r(A)p.r(G)p.r(G)p.d(T)p.d(T)}|RNA2{r(C)p.r(C)p.r(U)p.r(C)p.r(A)p.r(C)p.r(C)p.r(A)p.r(U)p.r(C)p.r(C)p.r(G)p.r(U)p.r(C)p.r(C)p.r(A)p.r(G)p.r(U)p.r(A)p.d(C)p.d(T)}$$$RNA1{StrandType:ss}|RNA2{StrandType:as}$	32.6
RNA1{r(U)p.r(A)p.r(G)p.r(G)p.r(A)p.r(A)p.r(A)p.r(U)p.r(U)p.r(U)p.r(U)p.r(A)p.r(C)p.r(C)p.r(U)p.r(U)p.r(C)p.r(A)p.r(C)p.d(T)p.d(T)}|RNA2{r(G)p.r(U)p.r(G)p.r(A)p.r(A)p.r(G)p.r(G)p.r(U)p.r(A)p.r(A)p.r(A)p.r(A)p.r(U)p.r(U)p.r(U)p.r(C)p.r(C)p.r(U)p.r(A)p.d(A)p.d(G)}$$$RNA1{StrandType:ss}|RNA2{StrandType:as}$	86.2
RNA1{r(U)p.r(A)p.r(U)p.r(C)p.r(U)p.r(U)p.r(A)p.r(G)p.r(G)p.r(A)p.r(A)p.r(A)p.r(U)p.r(U)p.r(U)p.r(U)p.r(A)p.r(C)p.r(C)p.d(T)p.d(T)}|RNA2{r(G)p.r(G)p.r(U)p.r(A)p.r(A)p.r(A)p.r(A)p.r(U)p.r(U)p.r(U)p.r(C)p.r(C)p.r(U)p.r(A)p.r(A)p.r(G)p.r(A)p.r(U)p.r(A)p.d(A)p.d(T)}$$$RNA1{StrandType:ss}|RNA2{StrandType:as}$	28.4
RNA1{r(U)p.r(C)p.r(A)p.r(A)p.r(G)p.r(A)p.r(G)p.r(G)p.r(G)p.r(U)p.r(U)p.r(A)p.r(G)p.r(U)p.r(U)p.r(G)p.r(G)p.r(G)p.r(G)p.d(T)p.d(T)}|RNA2{r(C)p.r(C)p.r(C)p.r(C)p.r(A)p.r(A)p.r(C)p.r(U)p.r(A)p.r(A)p.r(C)p.r(C)p.r(C)p.r(U)p.r(C)p.r(U)p.r(U)p.r(G)p.r(A)p.d(A)p.d(G)}$$$RNA1{StrandType:ss}|RNA2{StrandType:as}$	40.8
RNA1{r(U)p.r(C)p.r(A)p.r(C)p.r(G)p.r(A)p.r(C)p.r(U)p.r(C)p.r(U)p.r(A)p.r(A)p.r(A)p.r(A)p.r(C)p.r(A)p.r(A)p.r(A)p.r(G)p.d(T)p.d(T)}|RNA2{r(C)p.r(U)p.r(U)p.r(U)p.r(G)p.r(U)p.r(U)p.r(U)p.r(U)p.r(A)p.r(G)p.r(A)p.r(G)p.r(U)p.r(C)p.r(G)p.r(U)p.r(G)p.r(A)p.d(A)p.d(G)}$$$RNA1{StrandType:ss}|RNA2{StrandType:as}$	108
RNA1{r(U)p.r(C)p.r(A)p.r(U)p.r(A)p.r(A)p.r(U)p.r(U)p.r(G)p.r(G)p.r(C)p.r(U)p.r(U)p.r(C)p.r(G)p.r(C)p.r(A)p.r(A)p.r(G)p.d(T)p.d(T)}|RNA2{r(C)p.r(U)p.r(U)p.r(G)p.r(C)p.r(G)p.r(A)p.r(A)p.r(G)p.r(C)p.r(C)p.r(A)p.r(A)p.r(U)p.r(U)p.r(A)p.r(U)p.r(G)p.r(A)p.d(T)p.d(G)}$$$RNA1{StrandType:ss}|RNA2{StrandType:as}$	75.5
RNA1{r(U)p.r(C)p.r(A)p.r(U)p.r(U)p.r(C)p.r(A)p.r(G)p.r(A)p.r(A)p.r(G)p.r(A)p.r(C)p.r(U)p.r(U)p.r(C)p.r(A)p.r(G)p.r(U)p.d(T)p.d(T)}|RNA2{r(A)p.r(C)p.r(U)p.r(G)p.r(A)p.r(A)p.r(G)p.r(U)p.r(C)p.r(U)p.r(U)p.r(C)p.r(U)p.r(G)p.r(A)p.r(A)p.r(U)p.r(G)p.r(A)p.d(T)p.d(C)}$$$RNA1{StrandType:ss}|RNA2{StrandType:as}$	54.7
RNA1{r(U)p.r(C)p.r(U)p.r(A)p.r(A)p.r(A)p.r(A)p.r(C)p.r(A)p.r(A)p.r(A)p.r(G)p.r(A)p.r(A)p.r(G)p.r(G)p.r(C)p.r(C)p.r(A)p.d(T)p.d(T)}|RNA2{r(U)p.r(G)p.r(G)p.r(C)p.r(C)p.r(U)p.r(U)p.r(C)p.r(U)p.r(U)p.r(U)p.r(G)p.r(U)p.r(U)p.r(U)p.r(U)p.r(A)p.r(G)p.r(A)p.d(G)p.d(T)}$$$RNA1{StrandType:ss}|RNA2{StrandType:as}$	95.7
RNA1{r(U)p.r(C)p.r(U)p.r(G)p.r(U)p.r(G)p.r(A)p.r(U)p.r(G)p.r(U)p.r(A)p.r(C)p.r(C)p.r(C)p.r(U)p.r(A)p.r(C)p.r(C)p.r(U)p.d(T)p.d(T)}|RNA2{r(A)p.r(G)p.r(G)p.r(U)p.r(A)p.r(G)p.r(G)p.r(G)p.r(U)p.r(A)p.r(C)p.r(A)p.r(U)p.r(C)p.r(A)p.r(C)p.r(A)p.r(G)p.r(A)p.d(A)p.d(C)}$$$RNA1{StrandType:ss}|RNA2{StrandType:as}$	55.2
RNA1{r(U)p.r(C)p.r(U)p.r(G)p.r(U)p.r(U)p.r(C)p.r(C)p.r(C)p.r(A)p.r(G)p.r(U)p.r(U)p.r(C)p.r(U)p.r(G)p.r(U)p.r(G)p.r(A)p.d(T)p.d(T)}|RNA2{r(U)p.r(C)p.r(A)p.r(C)p.r(A)p.r(G)p.r(A)p.r(A)p.r(C)p.r(U)p.r(G)p.r(G)p.r(G)p.r(A)p.r(A)p.r(C)p.r(A)p.r(G)p.r(A)p.d(A)p.d(G)}$$$RNA1{StrandType:ss}|RNA2{StrandType:as}$	99.6
RNA1{r(U)p.r(G)p.r(A)p.r(A)p.r(C)p.r(U)p.r(U)p.r(C)p.r(C)p.r(U)p.r(G)p.r(U)p.r(U)p.r(U)p.r(G)p.r(U)p.r(U)p.r(G)p.r(C)p.d(T)p.d(T)}|RNA2{r(G)p.r(C)p.r(A)p.r(A)p.r(C)p.r(A)p.r(A)p.r(A)p.r(C)p.r(A)p.r(G)p.r(G)p.r(A)p.r(A)p.r(G)p.r(U)p.r(U)p.r(C)p.r(A)p.d(C)p.d(G)}$$$RNA1{StrandType:ss}|RNA2{StrandType:as}$	33.7
RNA1{r(U)p.r(G)p.r(A)p.r(G)p.r(G)p.r(G)p.r(A)p.r(A)p.r(A)p.r(U)p.r(G)p.r(C)p.r(A)p.r(G)p.r(A)p.r(A)p.r(G)p.r(U)p.r(U)p.d(T)p.d(T)}|RNA2{r(A)p.r(A)p.r(C)p.r(U)p.r(U)p.r(C)p.r(U)p.r(G)p.r(C)p.r(A)p.r(U)p.r(U)p.r(U)p.r(C)p.r(C)p.r(C)p.r(U)p.r(C)p.r(A)p.d(G)p.d(T)}$$$RNA1{StrandType:ss}|RNA2{StrandType:as}$	104
RNA1{r(U)p.r(G)p.r(A)p.r(G)p.r(U)p.r(A)p.r(C)p.r(U)p.r(G)p.r(G)p.r(A)p.r(C)p.r(G)p.r(G)p.r(A)p.r(U)p.r(G)p.r(G)p.r(U)p.d(T)p.d(T)}|RNA2{r(A)p.r(C)p.r(C)p.r(A)p.r(U)p.r(C)p.r(C)p.r(G)p.r(U)p.r(C)p.r(C)p.r(A)p.r(G)p.r(U)p.r(A)p.r(C)p.r(U)p.r(C)p.r(A)p.d(T)p.d(C)}$$$RNA1{StrandType:ss}|RNA2{StrandType:as}$	63.1
RNA1{r(U)p.r(G)p.r(C)p.r(A)p.r(G)p.r(A)p.r(A)p.r(G)p.r(C)p.r(C)p.r(C)p.r(A)p.r(G)p.r(G)p.r(U)p.r(G)p.r(U)p.r(G)p.r(G)p.d(T)p.d(T)}|RNA2{r(C)p.r(C)p.r(A)p.r(C)p.r(A)p.r(C)p.r(C)p.r(U)p.r(G)p.r(G)p.r(G)p.r(C)p.r(U)p.r(U)p.r(C)p.r(U)p.r(G)p.r(C)p.r(A)p.d(T)p.d(T)}$$$RNA1{StrandType:ss}|RNA2{StrandType:as}$	61.3
RNA1{r(U)p.r(G)p.r(C)p.r(A)p.r(G)p.r(A)p.r(A)p.r(U)p.r(U)p.r(C)p.r(U)p.r(C)p.r(A)p.r(C)p.r(U)p.r(A)p.r(A)p.r(U)p.r(G)p.d(T)p.d(T)}|RNA2{r(C)p.r(A)p.r(U)p.r(U)p.r(A)p.r(G)p.r(U)p.r(G)p.r(A)p.r(G)p.r(A)p.r(A)p.r(U)p.r(U)p.r(C)p.r(U)p.r(G)p.r(C)p.r(A)p.d(A)p.d(C)}$$$RNA1{StrandType:ss}|RNA2{StrandType:as}$	72.9
RNA1{r(U)p.r(G)p.r(C)p.r(C)p.r(U)p.r(U)p.r(U)p.r(G)p.r(C)p.r(A)p.r(C)p.r(C)p.r(G)p.r(G)p.r(G)p.r(G)p.r(C)p.r(C)p.r(A)p.d(T)p.d(T)}|RNA2{r(U)p.r(G)p.r(G)p.r(C)p.r(C)p.r(C)p.r(C)p.r(G)p.r(G)p.r(U)p.r(G)p.r(C)p.r(A)p.r(A)p.r(A)p.r(G)p.r(G)p.r(C)p.r(A)p.d(T)p.d(G)}$$$RNA1{StrandType:ss}|RNA2{StrandType:as}$	59.1
RNA1{r(U)p.r(G)p.r(G)p.r(A)p.r(C)p.r(G)p.r(G)p.r(A)p.r(U)p.r(G)p.r(G)p.r(U)p.r(G)p.r(A)p.r(G)p.r(G)p.r(A)p.r(C)p.r(U)p.d(T)p.d(T)}|RNA2{r(A)p.r(G)p.r(U)p.r(C)p.r(C)p.r(U)p.r(C)p.r(A)p.r(C)p.r(C)p.r(A)p.r(U)p.r(C)p.r(C)p.r(G)p.r(U)p.r(C)p.r(C)p.r(A)p.d(G)p.d(T)}$$$RNA1{StrandType:ss}|RNA2{StrandType:as}$	52.5
RNA1{r(U)p.r(G)p.r(G)p.r(A)p.r(G)p.r(U)p.r(G)p.r(C)p.r(C)p.r(A)p.r(G)p.r(A)p.r(U)p.r(G)p.r(U)p.r(U)p.r(G)p.r(C)p.r(A)p.d(T)p.d(T)}|RNA2{r(U)p.r(G)p.r(C)p.r(A)p.r(A)p.r(C)p.r(A)p.r(U)p.r(C)p.r(U)p.r(G)p.r(G)p.r(C)p.r(A)p.r(C)p.r(U)p.r(C)p.r(C)p.r(A)p.d(C)p.d(A)}$$$RNA1{StrandType:ss}|RNA2{StrandType:as}$	91.3
RNA1{r(U)p.r(G)p.r(G)p.r(C)p.r(C)p.r(C)p.r(U)p.r(G)p.r(C)p.r(C)p.r(A)p.r(C)p.r(U)p.r(G)p.r(U)p.r(C)p.r(C)p.r(C)p.r(A)p.d(T)p.d(T)}|RNA2{r(U)p.r(G)p.r(G)p.r(G)p.r(A)p.r(C)p.r(A)p.r(G)p.r(U)p.r(G)p.r(G)p.r(C)p.r(A)p.r(G)p.r(G)p.r(G)p.r(C)p.r(C)p.r(A)p.d(G)p.d(G)}$$$RNA1{StrandType:ss}|RNA2{StrandType:as}$	93.6
